US7385026B1, “Modified ghrelin polypeptides” (priority 1999, dated 2008)
Square brackets hold non-standard residues; d marks the D form. Peptide text beside a SMILES is read from it. * marks the point of attachment. Octanoyl = CCCCCCCC(=O)*; Ava = NCCCCC(=O)O; Octyl = CCCCCCCC*

These compounds were tested against T1, rat GHS-receptor (GHR-R) (Rattus norvegicus, UniProt O08725) (assay: Ca-releasing activity (increase in intracellular calcium) in CHO-GHSR62 cells, FLIPR). Details: not given.
T1 construct: A full-length cDNA for rat GHR-R was obtained by RT-PCR; expressed in transfected cells
T1 sequence (O08725 whole entry): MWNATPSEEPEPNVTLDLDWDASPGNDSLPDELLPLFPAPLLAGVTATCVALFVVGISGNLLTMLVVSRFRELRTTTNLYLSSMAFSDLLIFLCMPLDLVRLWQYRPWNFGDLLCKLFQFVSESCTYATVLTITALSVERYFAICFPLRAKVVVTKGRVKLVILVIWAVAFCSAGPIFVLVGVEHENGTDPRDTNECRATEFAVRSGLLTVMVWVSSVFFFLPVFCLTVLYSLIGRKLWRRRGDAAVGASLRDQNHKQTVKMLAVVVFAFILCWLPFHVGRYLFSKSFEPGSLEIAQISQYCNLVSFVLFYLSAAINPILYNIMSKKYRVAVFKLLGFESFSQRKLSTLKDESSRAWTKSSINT
Type: cell-based
Source text: To assay an increase in the intracellular calcium ion concentration (Ca-releasing activity) occurring upon binding of a GH secretagogue (GHS) to GHS-receptor (GHR-R), a cell strain expressing rat GHR-R was created in the following manner. A full-length cDNA for rat GHR-R was obtained by RT-PCR (reverse transcriptase-polymerase chain reaction) where a cDNA derived from rat brain was used as template. From the nucleotide sequence of known rat GHR-R [K. K. Mckee, et al, Molecular Endocrinology 11, 415-423 (1997)], sense and antisense primers consisting of the following nucleotide sequences were synthesized.
The amplified cDNA was ligated to vector pcDNAIII (Invitrogen) to construct expression vector GHSR-pcDNAIII. CHO cells were transformed via the expression vector, and the transformed cells stably expressing GHR-R were selected in a medium containing 1 μg/ml G418. […] A change in the intracellular calcium ion concentration (Ca-releasing activity) was measured by an FLIPR system (Molecular Device). Before this measurement, 4×10^4 CHO-GHSR62 cells were put to a 96-well microplate with black wall (Corning Co., Ltd) and cultured for 12 to 15 hours. Then, the cells were incubated with 4 μM fluorescent Fluo4 (Molecular Probe Co., Ltd) for 1 hour and washed four times with Hank's BSS (Hank's Balanced Salt Solution) containing 20 mM Hepes ([N-2-hydroxyethyl]-piperazine-N-[2-ethanesulfonic acid]) and 2.5 mM probenecid, and the Ca-releasing activity was assayed by adding a sample and measuring a change in the fluorescence.
Peptide fragments obtained by partially digested the rat- and human-derived ghrelins by various proteases, or chemically synthesized peptides, were examined for their Ca releasing activity in order to determine a core amino acid sequence and the optimum chain length of a modifying fatty acid necessary for Ca-releasing activity.
The Ca-increasing activities of the ghrelin derivative peptide-type compounds synthesized in Example 10 and the natural ghrelin peptide were measured in the same manner as in Example 1.
In this examination, the intracellular Ca-releasing activity in CHO cells expressing rat GSH receptor was used as the indicator.

| SMILES | Ca-releasing activity relative to ghrelin (1-4) before addition of lysine |
| --- | --- |
| CCCCCCCC(=O)OC[C@H](NC(=O)[C@H](CO)NC(=O)CN)C(=O)N[C@@H](Cc1ccccc1)C(=O)N[C@@H](CCCCN)C(N)=O [Compound 38, [Lys^5]-Ghrelin (1-5)-amide] (H-GSS(Octanoyl)FK-NH2) | about 50 times |

Same assay, conditions: CHO-GHSR62 cells (CHO cells expressing rat GHS receptor), FLIPR; read-out: Ca-releasing activity EC50

| SMILES | EC50 [nM] |
| --- | --- |
| CCCCCCCC(=O)OC[C@H](NC(=O)[C@H](Cc1c[nH]cn1)NC(=O)CN)C(=O)N[C@@H](Cc1ccccc1)C(=O)N[C@@H](CC(C)C)C(=O)N[C@@H](CO)C(=O)N1CCC[C@H]1C(N)=O [Compound 45, [His^2]-Ghrelin (1-7)-amide] (H-GHS(Octanoyl)FLSP-NH2) | 35 |
| CCCCCCCCOC[C@H](NC(=O)CCCCN)C(=O)N[C@@H](Cc1ccccc1)C(=O)N[C@@H](CC(C)C)C(=O)NCCN [Compound 85, [N-Aminopentanoyl, Ser^3(Octyl)]-Ghrelin (3-5), aminoethylamide] | 3.5 |
| CCCCCCCC(=O)OC[C@H](NC(=O)[C@H](CO)NC(=O)CN)C(N)=O [Compound 34, Ghrelin (1-3)-amide] (H-Gly-Ser-Ser(Octanoyl)-NH2) | > 10000 |
| CCCCCCCC(=O)OC[C@H](NC(=O)CCCCN)C(=O)N[C@@H](Cc1ccccc1)C(=O)N[C@@H](CC(C)C)C(=O)N[C@@H](CO)C(=O)N1CCC[C@H]1C(N)=O [Compound 40, [N-Aminopentanoyl]-Ghrelin (3-7)-amide] (H-[Ava]S(Octanoyl)FLSP-NH2) | 3.4 |
| CCCCCCCC(=O)OC[C@H](NC(=O)[C@H](CO)NC(=O)CN)C(=O)N[C@@H](Cc1ccccc1)C(=O)N[C@@H](CC(C)C)C(=O)N[C@@H](CO)C(N)=O [Compound 30, Ghrelin (1-6)-amide] (H-GSS(Octanoyl)FLS-NH2) | 4.8 |
| CCCCCCCC(=O)OC[C@H](NC(=O)[C@H](CO)NC(=O)CN)C(=O)N[C@@H](Cc1ccccc1)C(=O)N[C@@H](CCCCN)C(N)=O [Compound 38, [Lys^5]-Ghrelin (1-5)-amide] (H-GSS(Octanoyl)FK-NH2) | 10 |
| CCCCCCCC(=O)OC[C@H](NC(=O)[C@H](CO)NC(=O)CN)C(=O)N[C@@H](Cc1ccccc1)C(=O)N[C@@H](CC(C)C)C(=O)N[C@@H](CO)C(=O)N1CCC[C@H]1C(=O)N[C@@H](CCC(=O)O)C(=O)N[C@@H](Cc1c[nH]cn1)C(=O)O [Compound 26, Ghrelin (1-9)] (H-GSS(Octanoyl)FLSPEH-OH) | 38 |
| CCCCCCCC(=O)NCC(=O)N[C@@H](CO)C(=O)N[C@@H](CO)C(=O)N[C@@H](Cc1ccccc1)C(=O)N[C@@H](CC(C)C)C(=O)N[C@@H](CO)C(=O)N1CCC[C@H]1C(=O)N[C@@H](CCC(=O)O)C(=O)N[C@@H](Cc1c[nH]cn1)C(N)=O [Compound 6, [N-Octanoyl, Ser^3]-Ghrelin (1-9)-amide] (Octanoyl-GSSFLSPEH-NH2) | > 10000 |
| CCCCCCCCCCCCCCCC(=O)OC[C@H](NC(=O)[C@H](CO)NC(=O)CN)C(=O)N[C@@H](Cc1ccccc1)C(=O)N[C@@H](CC(C)C)C(=O)N[C@@H](CO)C(=O)N1CCC[C@H]1C(=O)N[C@@H](CCC(=O)O)C(=O)N[C@@H](Cc1c[nH]cn1)C(=O)N[C@@H](CCC(N)=O)C(=O)N[C@@H](CCCCN)C(=O)N[C@@H](C)C(=O)N[C@@H](CCC(N)=O)C(=O)N[C@@H](CCC(N)=O)C(=O)N[C@@H](CCCNC(=N)N)C(=O)N[C@@H](CCCCN)C(=O)N[C@@H](CCC(=O)O)C(=O)N[C@@H](CO)C(=O)N[C@@H](CCCCN)C(=O)N[C@@H](CCCCN)C(=O)N1CCC[C@H]1C(=O)N1CCC[C@H]1C(=O)N[C@@H](C)C(=O)N[C@@H](CCCCN)C(=O)N[C@@H](CC(C)C)C(=O)N[C@@H](CCC(N)=O)C(=O)N1CCC[C@H]1C(=O)N[C@@H](CCCNC(=N)N)C(=O)O [Compound 14, [Ser^3(Palmitoyl)]-rGhrelin] | 6.5 |
| CC(C)CCC(=O)OC[C@H](NC(=O)[C@H](CO)NC(=O)CN)C(=O)N[C@@H](Cc1ccccc1)C(=O)N[C@@H](CC(C)C)C(=O)N[C@@H](CO)C(=O)N1CCC[C@H]1C(=O)N[C@@H](CCC(=O)O)C(=O)N[C@@H](Cc1c[nH]cn1)C(=O)N[C@@H](CCC(N)=O)C(=O)N[C@@H](CCCNC(=N)N)C(=O)N[C@H](C(=O)N[C@@H](CCC(N)=O)C(=O)N[C@@H](CCC(N)=O)C(=O)N[C@@H](CCCNC(=N)N)C(=O)N[C@@H](CCCCN)C(=O)N[C@@H](CCC(=O)O)C(=O)N[C@@H](CO)C(=O)N[C@@H](CCCCN)C(=O)N[C@@H](CCCCN)C(=O)N1CCC[C@H]1C(=O)N1CCC[C@H]1C(=O)N[C@@H](C)C(=O)N[C@@H](CCCCN)C(=O)N[C@@H](CC(C)C)C(=O)N[C@@H](CCC(N)=O)C(=O)N1CCC[C@H]1C(=O)N[C@@H](CCCNC(=N)N)C(=O)O)C(C)C [Compound 69, [Ser^3(4-Methylpentanoyl)]-hGhrelin] | 4.4 |
| CCCCCCCC(=O)OC[C@H](NC(=O)[C@H](CO)NC(=O)CN)C(=O)N[C@H](Cc1ccccc1)C(=O)N[C@@H](CCCCN)C(N)=O [Compound 39, [^DPhe^4, Lys^5]-Ghrelin (1-5)-amide] (H-GSS(Octanoyl)[dF]K-NH2) | 1700 |
| CCCCCCCCOC[C@H](NC(=O)[C@H](CO)NC(=O)CN)C(=O)N[C@@H](Cc1ccccc1)C(=O)N[C@@H](CC(C)C)C(=O)N[C@@H](CO)C(=O)N1CCC[C@H]1C(N)=O [Compound 50, [Ser^3(Octyl)]-Ghrelin (1-7)-amide] | 5.8 |
| CCCCCCCCSC[C@H](NC(=O)[C@H](CO)NC(=O)CN)C(=O)N[C@H](Cc1ccccc1)C(=O)N[C@@H](CC(C)C)C(=O)N[C@@H](CO)C(=O)N1CCC[C@H]1C(N)=O [Compound 49, [Cys^3(Octyl), ^DPhe^4]Ghrelin (1-7)-amide] (H-GSC(Octyl)[dF]LSP-NH2) | 3000 |
| CC(C)C[C@H](NC(=O)[C@H](CCCCN)NC(=O)[C@H](C)NC(=O)[C@@H]1CCCN1C(=O)[C@@H]1CCCN1C(=O)[C@H](CCCCN)NC(=O)[C@H](CCCCN)NC(=O)[C@H](CO)NC(=O)[C@H](CCC(=O)O)NC(=O)[C@H](CCCCN)NC(=O)[C@H](CCCNC(=N)N)NC(=O)[C@H](CCC(N)=O)NC(=O)[C@H](CCC(N)=O)NC(=O)[C@@H](NC(=O)[C@H](CCCNC(=N)N)NC(=O)[C@H](CCC(N)=O)NC(=O)[C@H](Cc1c[nH]cn1)NC(=O)[C@H](CCC(=O)O)NC(=O)[C@@H]1CCCN1C(=O)[C@H](CO)NC(=O)[C@H](CC(C)C)NC(=O)[C@H](Cc1ccccc1)NC(=O)[C@H](Cc1c[nH]c2ccccc12)NC(=O)[C@H](CO)NC(=O)CN)C(C)C)C(=O)N[C@@H](CCC(N)=O)C(=O)N1CCC[C@H]1C(=O)N[C@@H](CCCNC(=N)N)C(=O)O [Compound 62, [Trp^3]-hGhrelin] | 31 |
| CC(C)C[C@H](NC(=O)[C@H](CCCCN)NC(=O)[C@H](C)NC(=O)[C@@H]1CCCN1C(=O)[C@@H]1CCCN1C(=O)[C@H](CCCCN)NC(=O)[C@H](CCCCN)NC(=O)[C@H](CO)NC(=O)[C@H](CCC(=O)O)NC(=O)[C@@H](N)CCCCN)C(=O)N[C@@H](CCC(N)=O)C(=O)N1CCC[C@H]1C(=O)N[C@@H](CCCNC(=N)N)C(=O)O [Compound 19, Ghrelin (16-28)] | > 10000 |
| CCCCCCCC(=O)OC[C@H](NC(=O)CN)C(=O)N[C@@H](Cc1ccccc1)C(=O)N[C@@H](CC(C)C)C(=O)N[C@@H](CO)C(=O)N1CCC[C@H]1C(N)=O [Compound 43, [N-Glycyl]-Ghrelin (3-7)-amide] (H-GS(Octanoyl)FLSP-NH2) | 380 |
| CCCCCCCCOC[C@@H](NC(=O)CCCCN)C(=O)N[C@H](Cc1ccccc1)C(=O)N[C@@H](CCCCN)C(N)=O [Compound 77, [N-Aminopentanoyl, ^DSer^3(Octyl), ^DPhe^4, Lys^5]-Ghrelin (3-5)-amide] | 1600 |

Same assay, conditions: Ca-releasing activity EC50, CHO-GHSR62 cells (CHO cells expressing rat GHS receptor), FLIPR

| SMILES | EC50 [nM] |
| --- | --- |
| CC(C)C[C@H](NC(=O)[C@H](CCCCN)NC(=O)[C@H](C)NC(=O)[C@@H]1CCCN1C(=O)[C@@H]1CCCN1C(=O)[C@H](CCCCN)NC(=O)[C@H](CCCCN)NC(=O)[C@H](CO)NC(=O)[C@H](CCC(=O)O)NC(=O)[C@H](CCCCN)NC(=O)[C@H](CCCNC(=N)N)NC(=O)[C@H](CCC(N)=O)NC(=O)[C@H](CCC(N)=O)NC(=O)[C@@H](NC(=O)[C@H](CCCNC(=N)N)NC(=O)[C@H](CCC(N)=O)NC(=O)[C@H](Cc1c[nH]cn1)NC(=O)[C@H](CCC(=O)O)NC(=O)[C@@H]1CCCN1C(=O)[C@H](CO)NC(=O)[C@H](CC(C)C)NC(=O)[C@H](Cc1ccccc1)NC(=O)[C@H](CSC(c1ccccc1)(c1ccccc1)c1ccccc1)NC(=O)[C@H](CO)NC(=O)CN)C(C)C)C(=O)N[C@@H](CCC(N)=O)C(=O)N1CCC[C@H]1C(=O)N[C@@H](CCCNC(=N)N)C(=O)O [Compound 68, [Cys^3(Trityl)]-hGhrelin] | 20 |

Same assay, conditions: Table 3, Example 9: protease fragments or synthetic peptides; CHO-GHSR62 cells; read-out: Ca-releasing activity (EC50)

| SMILES | EC50 [nM] |
| --- | --- |
| CC(C)C[C@H](NC(=O)[C@H](CCCCN)NC(=O)[C@H](C)NC(=O)[C@@H]1CCCN1C(=O)[C@@H]1CCCN1C(=O)[C@H](CCCCN)NC(=O)[C@H](CCCCN)NC(=O)[C@H](CO)NC(=O)[C@H](CCC(=O)O)NC(=O)[C@@H](N)CCCCN)C(=O)N[C@@H](CCC(N)=O)C(=O)N1CCC[C@H]1C(=O)N[C@@H](CCCNC(=N)N)C(=O)O [Compound 19, Ghrelin (16-28)] | > 10000 |

Same assay, conditions: octanoyl moved from 3rd to 2nd serine

| SMILES | Ca-releasing activity relative to the 3rd-serine octanoyl parent |
| --- | --- |
| CCCCCCCC(=O)OC[C@H](NC(=O)CN)C(=O)N[C@@H](CO)C(=O)N[C@@H](Cc1ccccc1)C(=O)N[C@@H](CC(C)C)C(=O)N[C@@H](CO)C(=O)N1CCC[C@H]1C(=O)N[C@@H](CCC(=O)O)C(=O)N[C@@H](Cc1c[nH]cn1)C(N)=O [Compound 4, [Ser^2(Octanoyl), Ser^3]-Ghrelin (1-9)-amide] (H-GS(Octanoyl)SFLSPEH-NH2) | about 1/200 |
